In patent US20090311217A1, “3-SUBSTITUTED-1H-INDOLE COMPOUNDS, THEIR USE AS MTOR KINASE AND PI3 KINASE INHIBITORS, AND THEIR SYNTHESES” (priority 2008, published 2009):
Where two headings read alike, the source gives them in different places.

Target: PI3K-alpha (Homo sapiens, UniProt P42336)
Assay: PI3K-alpha fluorescence polarization assay
Type: biochemical

PI3K-alpha, sequence (P42336 whole entry, species assumed): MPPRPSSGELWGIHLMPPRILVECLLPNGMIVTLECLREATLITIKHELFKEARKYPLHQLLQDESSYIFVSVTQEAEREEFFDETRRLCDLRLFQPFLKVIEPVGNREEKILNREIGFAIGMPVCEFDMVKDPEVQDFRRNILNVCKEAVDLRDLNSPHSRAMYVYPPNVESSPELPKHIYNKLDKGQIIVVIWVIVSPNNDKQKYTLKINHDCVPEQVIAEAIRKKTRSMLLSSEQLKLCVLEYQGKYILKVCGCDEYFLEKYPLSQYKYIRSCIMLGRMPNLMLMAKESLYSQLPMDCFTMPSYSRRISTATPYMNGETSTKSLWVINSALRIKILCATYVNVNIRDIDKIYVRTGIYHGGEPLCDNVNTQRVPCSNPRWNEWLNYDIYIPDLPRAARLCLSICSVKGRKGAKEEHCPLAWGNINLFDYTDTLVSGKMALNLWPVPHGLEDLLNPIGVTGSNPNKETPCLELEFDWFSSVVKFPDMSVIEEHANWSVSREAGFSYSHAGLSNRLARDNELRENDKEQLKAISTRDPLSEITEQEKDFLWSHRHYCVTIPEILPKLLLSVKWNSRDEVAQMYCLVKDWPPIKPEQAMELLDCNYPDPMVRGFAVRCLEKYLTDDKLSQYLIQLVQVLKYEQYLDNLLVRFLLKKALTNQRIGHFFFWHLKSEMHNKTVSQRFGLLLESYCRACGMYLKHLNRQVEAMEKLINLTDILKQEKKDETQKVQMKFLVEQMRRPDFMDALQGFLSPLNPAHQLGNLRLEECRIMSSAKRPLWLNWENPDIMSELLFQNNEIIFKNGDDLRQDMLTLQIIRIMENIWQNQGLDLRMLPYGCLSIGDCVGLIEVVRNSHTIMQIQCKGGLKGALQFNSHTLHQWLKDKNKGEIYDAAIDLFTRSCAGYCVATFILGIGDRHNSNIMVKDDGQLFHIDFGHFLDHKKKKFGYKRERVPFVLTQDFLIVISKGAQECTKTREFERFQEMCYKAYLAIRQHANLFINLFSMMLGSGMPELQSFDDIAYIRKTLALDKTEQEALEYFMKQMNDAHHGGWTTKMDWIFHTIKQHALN
PI3K-alpha, sequence (P27986 whole entry partner, species assumed): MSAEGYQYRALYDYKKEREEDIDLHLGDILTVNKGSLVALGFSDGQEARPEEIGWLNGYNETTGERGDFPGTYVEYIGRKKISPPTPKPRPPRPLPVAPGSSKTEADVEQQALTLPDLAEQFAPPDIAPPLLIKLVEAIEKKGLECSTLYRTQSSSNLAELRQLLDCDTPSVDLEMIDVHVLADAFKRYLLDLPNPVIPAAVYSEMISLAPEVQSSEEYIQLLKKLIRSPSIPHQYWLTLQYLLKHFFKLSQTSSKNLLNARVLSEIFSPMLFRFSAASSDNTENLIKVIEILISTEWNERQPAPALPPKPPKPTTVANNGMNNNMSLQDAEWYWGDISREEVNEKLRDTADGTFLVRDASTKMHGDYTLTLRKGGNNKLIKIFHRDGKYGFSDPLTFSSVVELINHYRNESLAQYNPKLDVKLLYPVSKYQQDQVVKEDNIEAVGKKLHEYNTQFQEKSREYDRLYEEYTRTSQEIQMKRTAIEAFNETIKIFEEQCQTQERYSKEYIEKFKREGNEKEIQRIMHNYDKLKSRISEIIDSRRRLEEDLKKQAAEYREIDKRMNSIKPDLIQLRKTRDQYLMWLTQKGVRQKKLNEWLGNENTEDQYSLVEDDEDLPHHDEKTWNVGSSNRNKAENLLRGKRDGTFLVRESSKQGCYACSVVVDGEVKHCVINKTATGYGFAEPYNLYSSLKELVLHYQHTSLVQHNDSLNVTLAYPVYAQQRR

Row | SMILES | IC50 (read-out: PI3Kα Avg. IC50) | IC50 (PI3Kα Avg. IC50)
1 | COc1ccc2[nH]c(-c3ccccc3)c(C=C3Oc4cccc(O)c4C3=O)c2c1 [Example 79, 4-hydroxy-2-[(5-methoxy-2-phenyl-1H-indol-3-yl)methylene]-1-benzofuran-3(2H)-one] | 1.65 µM | 
2 | COc1ccc2c(c1)c(/C=C1\Oc3cc(OC(=O)N(C)c4ccccc4)ccc3C1=O)c(C)n2CCN1CCN(C)CC1 [Compound 558, (2Z)-2-({5-methoxy-2-methyl-1-[2-(4-methylpiperazin-1-yl)ethyl]-1H-indol-3-yl}methylene)-3-oxo-2,3-dihydro-1-benzofuran-6-yl methyl(phenyl)carbamate] |  | > 10 µM
3 | COc1cccc2c1O/C(=C\c1c[nH]c3cc(C)ccc13)C2=O [Example 40, (2Z)-7-methoxy-2-[(6-methyl-1H-indol-3-yl)methylene]-1-benzofuran-3(2H)-one] | > 10 µM | 
4 | O=C1C(=Cc2c[nH]c3ccccc23)Oc2ccccc21 [Example 1, 2-(1H-indol-3-ylmethylene)-1-benzofuran-3(2H)-one] | > 10 µM | 
5 | Cn1c(-c2ccccc2)c(/C=C2\Sc3ccccc3C2=O)c2ccccc21 [Example 275, (2Z)-2-[(1-methyl-2-phenyl-1H-indol-3-yl)methylene]-1-benzothiophen-3(2H)-one] | 2.8 µM | 
6 | COc1cccc2c1O/C(=C\c1c(-c3ccc(F)cc3)[nH]c3ccccc13)C2=O [Example 37, (2Z)-2-{[2-(4-fluorophenyl)-1H-indol-3-yl]methylene}-7-methoxy-1-benzofuran-3(2H)-one] | 2.35 µM | 
7 | Cc1cccc2c1c(/C=C1\Oc3cc(O)cc(O)c3C1=O)c(-c1ccccn1)n2C [Compound 477, (2Z)-2-[(1,4-dimethyl-2-pyridin-2-yl-1H-indol-3-yl)methylene]-4,6-dihydroxy-1-benzofuran-3(2H)-one] | 1.12 µM | 
8 | COc1cc(-c2ccncc2)c2c(c1)c(/C=C1\Oc3cc(O)ccc3C1=O)cn2CCCC#N [Compound 500, 4-{3-[(Z)-(6-hydroxy-3-oxo-1-benzofuran-2(3H)-ylidene)methyl]-5-methoxy-7-pyridin-4-yl-1H-indol-1-yl}butanenitrile] | 0.589 µM | 
9 | O=C1/C(=C/c2cn(Cc3ccccc3)c3ccccc23)Oc2cc(O)ccc21 [Example 33, (2Z)-2-[(1-benzyl-1H-indol-3-yl)methylene]-6-hydroxy-1-benzofuran-3(2H)-one] | > 10 µM | 
10 | Cc1ccc2c(c1)C(=O)/C(=C/c1c[nH]c3ccc(Br)cc13)S2 [Example 294, (2Z)-2-[(5-bromo-1H-indol-3-yl)methylene]-5-methyl-1-benzothiophen-3(2H)-one] | > 10 µM | 
11 | COc1cccc2c1O/C(=C\c1c(-c3ccc(Cl)cc3)[nH]c3ccccc13)C2=O [Example 35, (2Z)-2-{[2-(4-chlorophenyl)-1H-indol-3-yl]methylene}-7-methoxy-1-benzofuran-3(2H)-one] | 1.94 µM | 
12 | COc1cccc2c1OC(=Cc1c(-c3ccccc3)n(C)c3ccccc13)C2=O [Example 11, 7-methoxy-2-[(1-methyl-2-phenyl-1H-indol-3-yl)methylene]-1-benzofuran-3(2H)-one] | > 10 µM | 
13 | Cc1ccc2c(c1)C(=O)/C(=C/c1c(-c3ccc(Cl)cc3)[nH]c3ccccc13)S2 [Example 291, (2Z)-2-{[2-(4-chlorophenyl)-1H-indol-3-yl]methylene}-5-methyl-1-benzothiophen-3(2H)-one] | > 10 µM | 
14 | O=C1/C(=C/c2c[nH]c3ccc(F)cc23)Oc2c1ccc(O)c2O [Example 64, (2Z)-2-[(5-fluoro-1H-indol-3-yl)methylene]-6,7-dihydroxy-1-benzofuran-3(2H)-one] | 1.72 µM | 
15 | Cc1[nH]c2ccccc2c1/C=C1\Oc2cc(O)ccc2C1=O [Example 30, (2Z)-6-hydroxy-2-[(2-methyl-1H-indol-3-yl)methylene]-1-benzofuran-3(2H)-one] | 12.8 µM | 
16 | Cc1[nH]c2ccc([N+](=O)[O-])cc2c1/C=C1\Oc2cc(O)ccc2C1=O [Example 29, (2Z)-6-hydroxy-2-[(2-methyl-5-nitro-1H-indol-3-yl)methylene]-1-benzofuran-3(2H)-one] | > 10 µM | 
17 | O=C1/C(=C/c2c(-c3ccc4ccccc4c3)[nH]c3ccccc23)Oc2ccccc21 [Example 18, (2Z)-2-{[2-(2-naphthyl)-1H-indol-3-yl]methylene}-1-benzofuran-3(2H)-one] | 2.55 µM | 
18 | O=C1/C(=C/c2cn(Cc3ccccc3)c3ccccc23)Sc2ccccc21 [Example 282, (2Z)-2-[(1-benzyl-1H-indol-3-yl)methylene]-1-benzothiophen-3(2H)-one] | 1.42 µM | 
19 | O=C1/C(=C/c2cn(Cc3ccccc3)c3ccccc23)Sc2ccc(Cl)cc21 [Example 287, (2Z)-2-[(1-benzyl-1H-indol-3-yl)methylene]-5-chloro-1-benzothiophen-3(2H)-one] | > 10 µM | 
20 | Cc1ccc2c(c1)C(=O)/C(=C/c1c[nH]c3ccc(OCc4ccccc4)cc13)S2 [Example 295, (2Z)-2-{[5-(benzyloxy)-1H-indol-3-yl]methylene}-5-methyl-1-benzothiophen-3(2H)-one] | > 10 µM | 
21 | COc1cccc2c1OC(=Cc1cn(C)c3ccccc13)C2=O [Example 12, 7-methoxy-2-[(1-methyl-1H-indol-3-yl)methylene]-1-benzofuran-3(2H)-one] | > 10 µM | 

Row | SMILES | IC50 (read-out: PI3Kα Avg. IC50) | IC50 (PI3Kα Avg. IC50)
22 | O=C1/C(=C/c2c(-c3ccc(F)cc3)[nH]c3ccccc23)Sc2ccc(Cl)cc21 [Example 286, (2Z)-5-chloro-2-{[2-(4-fluorophenyl)-1H-indol-3-yl]methylene}-1-benzothiophen-3(2H)-one] | > 10 µM | 
23 | COc1cccc2c1O/C(=C\c1cn(Cc3ccccc3)c3ccccc13)C2=O [Example 42, (2Z)-2-[(1-benzyl-1H-indol-3-yl)methylene]-7-methoxy-1-benzofuran-3(2H)-one] | > 10 µM | 
24 | Cc1ccc2c(/C=C3\Oc4ccccc4C3=O)c[nH]c2c1 [Example 22, (2Z)-2-[(6-methyl-1H-indol-3-yl)methylene]-1-benzofuran-3(2H)-one] | > 10 µM | 
25 | Cc1cccc2c(/C=C3\Oc4ccccc4C3=O)c[nH]c12 [Example 23, (2Z)-2-[(7-methyl-1H-indol-3-yl)methylene]-1-benzofuran-3(2H)-one] | > 10 µM | 
26 | O=C1/C(=C/c2c(-c3ccc(Cl)cc3)[nH]c3ccccc23)Oc2cc(O)ccc21 [Example 26, (2Z)-2-{[2-(4-chlorophenyl)-1H-indol-3-yl]methylene}-6-hydroxy-1-benzofuran-3(2H)-one] | 3.81 µM | 
27 | O=C1/C(=C/c2c(-c3ccc(F)cc3)[nH]c3ccccc23)Oc2cc(O)ccc21 [Example 28, (2Z)-2-{[2-(4-fluorophenyl)-1H-indol-3-yl]methylene}-6-hydroxy-1-benzofuran-3(2H)-one] | 2.43 µM | 
28 | Cn1cc(/C=C2\Oc3c(ccc(O)c3O)C2=O)c2ccccc21 [Example 57, (2Z)-6,7-dihydroxy-2-[(1-methyl-1H-indol-3-yl)methylene]-1-benzofuran-3(2H)-one] | 4.5 µM | 
29 | O=C1/C(=C/c2c(-c3ccc(F)cc3)[nH]c3ccccc23)Oc2ccccc21 [Example 19, (2Z)-2-{[2-(4-fluorophenyl)-1H-indol-3-yl]methylene}-1-benzofuran-3(2H)-one] | 1.98 µM | 
30 | Cc1ccc2c(c1)C(=O)C(=Cc1c(-c3ccc4ccccc4c3)[nH]c3ccccc13)S2 [Example 296, 5-methyl-2-{[2-(2-naphthyl)-1H-indol-3-yl]methylene}-1-benzothiophen-3(2H)-one] | 12 µM | 
31 | Cn1c(-c2ccccc2)c(C=C2Oc3cc(O)ccc3C2=O)c2ccccc21 [Example 7, 6-hydroxy-2-[(1-methyl-2-phenyl-1H-indol-3-yl)methylene]-1-benzofuran-3(2H)-one] | > 10 µM | 
32 | Cc1ccc2c(c1)C(=O)/C(=C/c1c[nH]c3cc(C)ccc13)S2 [Example 292, (2Z)-5-methyl-2-[(6-methyl-1H-indol-3-yl)methylene]-1-benzothiophen-3(2H)-one] | > 10 µM | 
33 | Cc1ccc2c(c1)C(=O)/C(=C/c1c[nH]c3ccccc13)S2 [Example 289, (2Z)-2-(1H-indol-3-ylmethylene)-5-methyl-1-benzothiophen-3(2H)-one] | 10.7 µM | 
34 | O=C1/C(=C/c2c[nH]c3ccc(Br)cc23)Oc2cc(O)ccc21 [Example 32, (2Z)-2-[(5-bromo-1H-indol-3-yl)methylene]-6-hydroxy-1-benzofuran-3(2H)-one] | 6.47 µM | 
35 | O=C1/C(=C/c2c[nH]c3ccc(OCc4ccccc4)cc23)Sc2ccc(Cl)cc21 [Example 288, (2Z)-2-{[5-(benzyloxy)-1H-indol-3-yl]methylene}-5-chloro-1-benzothiophen-3(2H)-one] | > 10 µM | 
36 | Cc1ccc2c(/C=C3\Oc4cc(O)ccc4C3=O)c[nH]c2c1 [Example 31, (2Z)-6-hydroxy-2-[(6-methyl-1H-indol-3-yl)methylene]-1-benzofuran-3(2H)-one] | 9.6 µM | 
37 | Cc1ccc2c(c1)C(=O)C(=Cc1c(C)[nH]c3ccc([N+](=O)[O-])cc13)S2 [Example 298, 5-methyl-2-[(2-methyl-5-nitro-1H-indol-3-yl)methylene]-1-benzothiophen-3(2H)-one] | 9.19 µM | 
38 | COc1cccc2c1O/C(=C\c1c(C)[nH]c3ccc([N+](=O)[O-])cc13)C2=O [Example 38, (2Z)-7-methoxy-2-[(2-methyl-5-nitro-1H-indol-3-yl)methylene]-1-benzofuran-3(2H)-one] | > 10 µM | 
39 | COc1cccc2c1OC(=Cc1c(-c3ccccc3)[nH]c3ccccc13)C2=O [Example 10, 7-methoxy-2-[(2-phenyl-1H-indol-3-yl)methylene]-1-benzofuran-3(2H)-one] | > 10 µM | 
40 | O=C1/C(=C/c2c[nH]c3ccccc23)Sc2ccccc21 [Example 273, (2Z)-2-(1H-indol-3-ylmethylene)-1-benzothiophen-3(2H)-one] | 9.62 µM | 
41 | Cc1c(C=C2Oc3cc(O)cc(O)c3C2=O)c2cc(F)ccc2n1C [Example 235, 2-[(5-fluoro-1,2-dimethyl-1H-indol-3-yl)methylene]-4,6-dihydroxy-1-benzofuran-3(2H)-one] | 4.03 µM | 
42 | CN(c1ccccc1)c1cccc2c1c(/C=C1\Oc3cc(O)cc(O)c3C1=O)cn2C [Compound 542, (2Z)-4,6-dihydroxy-2-({1-methyl-4-[methyl(phenyl)amino]-1H-indol-3-yl}methylene)-1-benzofuran-3(2H)-one] | 0.359 µM | 
